Experimental data: patent US20240059740A1, “CYCLIC PEPTIDES AND USES THEREOF” (PRE[…] INC., priority 2020, published 2024)
Residues, ends and D or L forms follow the SMILES beside them.

Key:
Type in all cases: cell-based, human
Snail-2 mRNA = test: Real time RT-PCR, Snail-2 mRNA expression
Source text: (§1) The real-time reverse transcription polymerase chain reaction (RT-PCR) uses fluorescent reporter molecules to monitor the production of amplification products during each cycle of the PCR reaction. This combines the nucleic acid amplification and detection steps into one homogeneous assay and use of appropriate chemistries and data analysis eliminates the need for Southern blotting or DNA sequencing for amplicon identification. Its simplicity, specificity and sensitivity, together with its potential for high throughput and the ongoing introduction of new chemistries, more reliable instrumentation and improved protocols, has made real-time RT-PCR the benchmark technology for the detection and/or comparison of RNA levels.’
(§2) In order to detect and quantify the expression of specific genes at mRNA level, real-time reverse transcriptase polymerase chain reaction (Real time RT-PCR) was performed. Total RNA of samples was isolated and purified using the PureLink® RNA Mini Kit (Life technologies). The concentration of total RNA was detected by NanoDrop 2000 Spectrophotometer (Thermo Scientific). The total RNA (2000 ng) was reverse transcribed using the High-Capacity cDNA Reverse Transcription Kit (Applied Biosystems™).
(§3) The primers of target genes were TaqMan™ Gene Expression Assay for human PLAU (Hs01547054_m1), MMP-2 (Hs01548727_m1), MMP-9 (Hs00957562_m1), Snail-1 (Hs00195591_m1), Snail-2 (Hs00161904_m1), N-cadherin (Hs00983056_m1) and Twist (Hs01675818_s1). Relative quantification was done by reference to 18S ribosomal RNA (18S rRNA) and analysed using the comparative critical threshold (Ct) method
(§4) The mRNA expression of MMPs was measured using qRT-PCR. This was tested three independent times; the results are shown in Tables 9, 10 and 11 for U251, U87 cells and O81024 cells respectively. Results are reported as percent of the control cells (no treatment). Both MMP-2 and uPA were decreased in U251 by SEQ ID NO.1.
(§5) Epithelial-mesenchymal transition (EMT) is the process by which epithelial cells acquire a migratory (metastatic) phenotype and so EMT is associated with cancer metastasis, cancer cell stemness, chemoresistance and immune resistance. Therefore, the determination of the mRNA expression of EMT markers is a valuable tool to evaluate invasion potential of cancer cells.
(§6) The ‘Snail’ superfamily is involved in cell differentiation and survival, two processes central in cancer research. Snail-1 has a pivotal role in the regulation of epithelial-mesenchymal transition (EMT) and Snail-1 expression is associated with poor prognosis in metastatic cancer, and tumours with elevated Snail-1 expression are harder to treat. […]

uPA (PLAU) mRNA = test: Real time RT-PCR, uPA mRNA expression
Source text: as §1, §2, §3, §4

MMP-2 mRNA = test: Real time RT-PCR, MMP-2 mRNA expression
Source text: as §1, §2, §3, §4

081024 cells = test: MTT assay for cytotoxicity, 081024 oncospheres; conditions: % viability of control
Source text: The MTT (3-[4.5-dimethylthiazol-2-yl]-2,5═diphenyl tetrazolium bromide) assay is based on a process undertaken by living cells, involving the conversion of MTT into formazan crystals. This assay is used routinely to measure the in vitro cytotoxic effects of drugs on cell lines or primary patient cells (Van Meerloo et al., 2011). The MTT assay measures mitochondrial activity, so in some instances where the peptide activates mitochondrial response, the results appear to increase the number of cells present i.e. >100% cell viability.
The aim of this experiment was to identify peptide concentrations that are active on living cells and cell viability was assessed.
The glioblastoma multiforme (GBM) cell lines used were U87 and U251 cells and patient derived cells grown as oncospheres (081024 cells). Human adherent GBM cell lines U87 and U251 were cultured in RPMI medium (Life Technologies Melbourne Australia) supplemented with 5% v/v FBS, 100 U/mL penicillin and 100 μg/mL streptomycin. 081024 cells were cultrured in NeuroCult™ NS-A Proliferation medium with 0.2% (v/v) heparin, 20 ng/mL EGF and 10 ng/mL FGF.
8×10^3 U87 and 7×10^3 U251 cells per well were seeded in 96 well plates in 200 μL serum-containing RPMI medium and incubated at 37° C. with 5% CO2 for 24 hours. After one wash with serum-free medium, 100 μL serum-free medium with different concentration of peptide SEQ ID NO:1 was added to each well. After 48 hours incubation, 10 μL of 0.5 mg/mL MTT was added and incubated for 2 hours at 37° C. Formazan crystals were dissolved by 200 μL/well dimethyl sulfoxide (DMSO) and shaking for 15 minutes. The UV absorbance was read with an iMark™ microplate absorbance reader at 595 nm (Bio-Rad Laboratories). Background absorbance was subtracted and results expressed as the % viability of control (untreated cells).

CDH-2 (N-cadherin) mRNA = test: Real time RT-PCR, CDH-2 (N-cadherin) mRNA expression
Source text: as §1, §2, §3, §4, §5, §6

Twist mRNA = test: Real time RT-PCR, Twist mRNA expression
Source text: as §1, §2, §3
as §4, with “NO.1. […]” for “NO.1.”

[1] = 081024 cells, baseline expression level = 1
[2] = U87 cells, baseline expression level = 1
[3] = U251 cells, relative to control (no treatment)

For CC(C)C[C@@H]1NC(=O)[C@H](C)NC(=O)[C@@H](NC(=O)[C@@H]2CCCN2C(=O)[C@@H](N)CC(C)C)CSSC(C)(C)CNC(=O)CC[C@@H](C(=O)N[C@@H](CCCNC(=N)N)C(N)=O)NC(=O)[C@H](CC(=O)O)NC(=O)[C@H](CC(N)=O)NC1=O [SEQ ID NO: 1, Leu-Pro-c(SSA*-Ala-Leu-Asn-Asp-Glu)-Arg-NH2] (HELM PEPTIDE1{L.P.C.A.L.N.D.E.R.[am]}|CHEM1{[CC(C)(CN[*:2])S[*:1]]}$PEPTIDE1,CHEM1,3:R3-1:R1|PEPTIDE1,CHEM1,8:R3-1:R2$$$V2.0; N-terminus assumed), the “mRNA expression, Snail-2” value (Snail-2 mRNA; [1]) was 1.01, the “mRNA expression, Snail-2” value (Snail-2 mRNA; [2]) was 0.94 and the “mRNA expression, Snail-2” value (Snail-2 mRNA; [3]) was 0.75. For the same molecule, the “mRNA expression, Snail-2 (in words)” value (Snail-2 mRNA; cell line not specified) was “non-statistical decrease in expression”, the “mRNA expression, uPA” value (uPA (PLAU) mRNA; [1]) was 0.85 and the “mRNA expression, uPA” value (uPA (PLAU) mRNA; [2]) was 1.19. For the same molecule, the “mRNA expression, uPA” value (uPA (PLAU) mRNA; U251 cells, relative to control (no treatment), 18S rRNA reference, listed as SEQ ID NO. 1) was 0.63, the “mRNA expression, uPA” value (uPA (PLAU) mRNA; U251 cells, relative to control (no treatment), 18S rRNA reference, listed as SEQ ID NO.1) was “decreased” and the “mRNA expression, MMP-2” value (MMP-2 mRNA; [1]) was 0.91. The “mRNA expression, MMP-2” value (MMP-2 mRNA; [2]) was 0.84, the “mRNA expression, MMP-2” value (MMP-2 mRNA; U251 cells, relative to control (no treatment), listed as SEQ ID NO. 1) was 0.72 and the “mRNA expression, MMP-2” value (MMP-2 mRNA; U251 cells, relative to control (no treatment), listed as SEQ ID NO.1) was “decreased”. For the same molecule, the Cell viability (081024 cells; 1 μM) was 104.2%, the Cell viability (081024 cells; 5 μM) was 106.8% and the Cell viability (081024 cells; 10 μM) was 106.7%. It also gave a Cell viability (081024 cells; 50 μM) of 106.5%, a Cell viability (081024 cells; 100 μM) of 106.9% and a Cell viability (081024 cells; 500 μM) of 99.68%. For the same molecule, the Cell viability (081024 cells; 1 mM) was 89.58%, the “mRNA expression, CDH-2” value (CDH-2 (N-cadherin) mRNA; [1]) was 0.91 and the “mRNA expression, CDH-2” value (CDH-2 (N-cadherin) mRNA; [2]) was 0.98. For the same molecule, the “mRNA expression, CDH-2” value (CDH-2 (N-cadherin) mRNA; [3]) was 0.82, the “mRNA expression, CDH-2 (in words)” value (CDH-2 (N-cadherin) mRNA; cell line not specified) was “non-statistical decrease in expression” and the “mRNA expression, Twist” value (Twist mRNA; [1]) was 0.94. The “mRNA expression, Twist” value (Twist mRNA; [2]) was 0.79 and the “mRNA expression, Twist” value (Twist mRNA; [3]) was 0.91.
